# In EP0441876B1, “NON-BIOA[…]” (COULSTON INTERNATIONAL CORPORATION, priority 1988, dated 1990):
# Key:
# [1] = test system: Aedes aegypti; experiment: Filter paper test for insecticidal activity against mosquitoes (Table 3); assay type: in vivo; conditions: for 100 % kill: time after which 100% of the mosquitoes were killed
# Protocol: The experimental design of the test for activity against mosquitoes is as follows.
# […] The filter paper was then placed in a petri dish and 10-20 mosquitoes (Aedes aegypti) added. The effect of the chemical on the mosquitoes (flying activity, mortality) was observed and recorded for up to 72 hours. Generally the experiments were in triplicate, the parent cyclodiene and its dechlorinated derivative were tested and compared to the control; the filter paper of the control was treated with acetone only. A total of 9 pairs of chemicals (parent cyclodiene and dechlorinated derivative) and CIC-134 were tested according to the procedure above.
# [2] = test system: Mosquitoes: Aedes aegypti, Anopheles quadramaculatus; experiment: Insecticide testing on filter paper: knock-down and killing effect (Table 5); assay type: in vivo; conditions: for Lowest Concentration With Killing Effect / Lowest Concentration for Knockdown: concentration of acetone solution, 1 ml on filter paper
# Protocol: (§1) • I. Insecticide Testing Insects: Mosquitoes Species: Aedes aegypti, Anopheles quadramaculatus The mosquitoes were bred under controlled conditions (humidity, temperature and nutrition) at White Sands Research center. Test room temperature: approximately 70 F (average) Test room humidity: between 50% and 70% (average) Procedure: The test compounds were dissolved in HPLC grade acetone at the appropriate concentrations. One ml of the solution was applied with a disposable 1 ml syringe on filter paper (Whatman 541, 9.0 cm diameter). After evaporatin of the acetone, the filter paper was placed in a Petri dish (diameter also about 9.0 cm) with alid. […] The mosquitoes (not less than 5 or more than 20) were transferred in the dish through a hole in the lid. The lid was stopped up with a cotton ball wrapped in filter paper and soaked in sugar water. Two dishes with control insects - the filter paper was treated with 1 ml pure acetone - were observed. Readings were taken 3 to 4 times during the first hour, thereafter every hour. […] "Down" (D) = mosquitoes are disabled to fly, lay on their back or side. "Dead" = mosquitoes are completely moveless (e.g. no movement of body, legs or wints). these criteria can be considered as very strict. • II. Bioaccumulation Tests in Rats Species: Sprague Dawley and Fisher Rats Sex: Female Age/Weight: Young rats (average weight between 130 and 180 grams) Procedure: The animals were housed in stainless steel metabolism cages in a temperature controlled animal room. They were quarantined for at least 6 days before being placed on the study. Three rats were taken for each test compound (see appendix for dose levels). Each animal was dosed on five consecutive days by oral gavage. The test compound was dissolved or suspended in 0.5% carboxy methyl cellulose solution or corn oil (Mazola). After 14 days the rats were sacrificed by CO2. Samples of fat (abdominal) liver, kidneys, brain and muscle (leg) were removed and extracted for analysis. The fat of each rat was analyzed separately with regard to the individual total dose. The other organs of all three rats were combined and analyzed with regard to the total dose being applied to all three rats. The analysis was done by gas chromatography under ECD (electron capture detector) detection.
# [3] = Bioaccumulation tests in rats; assay type: in vivo, Sprague Dawley and Fisher Rats; conditions: female rats, oral gavage on five consecutive days, sacrificed after 14 days, tissue analysis by GC-ECD with regard to total dose
# Protocol: as §1
# [4] = test system: Sitophilus Oryza (Rice Weevil); experiment: Contact test at 1% concentration; assay type: in vivo
# [5] = test system: Acheta domestica (Crickets); experiment: Contact test at 1% concentration; assay type: in vivo
# [6] = test system: Cimex lectularius (Bed bugs); experiment: Contact test at 1% concentration; assay type: in vivo
# [7] = test system: Tenebrio molitor (Greater Meal Worm); experiment: Contact test at 1% concentration; assay type: in vivo
# [8] = test system: Mosca domestica (House fly); experiment: Contact test at 1% concentration; assay type: in vivo
# [9] = test system: Blatella germanica (German cockroach); experiment: Contact test at 1% concentration; assay type: in vivo
# [10] = test system: Maize Weevil; experiment: Contact test at 1% concentration; assay type: in vivo
# [11] = test system: Grainery Weevil; experiment: Contact test at 1% concentration; assay type: in vivo
# [12] = test system: Ctenocephalides felis (Cat fleas); experiment: Contact test at 1% concentration; assay type: in vivo
# [13] = test system: Pediculus humanus (Lice); experiment: Contact test at 1% concentration; assay type: in vivo
# [14] = 1% solution in acetone, 1 ml on filter paper, time after which 100% of the mosquitoes were affected (dead, lying down, wobbly, erratic)
# [15] = 1% solution in acetone, 1 ml on filter paper
Compound,"100% effect [1, 14] [h]","100 % kill [1, 15] [h]",Lowest Concentration With Killing Effect [2] [%],Lowest Concentration for Knockdown [2] [%],Bioaccumulation in Rats [3],other results
"1,2,3,4,5-endo,6-endo,7-syn-heptachoronorborn-2-ene [CIC-143]",2,23,–,–,–,–
"1,2-endo,3-endo,4,7-anti-pentachlronorbornane [CIC-148]",0.08,6,0.015,0.06,~1.30% (estimate value),"dead ([2]; 0.015%, after 5 hours): 60%; down ([2]; 0.06%, time not given): 80%"
"1,2-endo,3-endo,4,7-syn-pentachloronorbornane [CIC-144]",0.08,23,0.06,0.06,0.01%,"dead ([2]; 0.06%, after 22 hours): 79%; down ([2]; 0.06%, time not given): 55%"
"1,4,7,7-Tetrachloro-bicyclo [2.2.1]-heptane epoxide [CIC-150]",4,23,0.5,–,–,"dead ([2]; 0.5%, after 7 hours): 27%"
"1,4,7,7-Tetrachloro-bicyclo- [2.2.1]-heptane-poxide (less) [CIC-149]",0.33,9,0.063,0.5,–,"dead ([2]; 0.063%, after 6 hours): 67%; down ([2]; 0.5%, after 10 minutes): 36%; Knock-down, remark in words ([2]; in vivo): Not very fast knock-down"
"Cl[C@@H]1C[C@]2(Cl)CC[C@@]1(Cl)C2(Cl)Cl [CIC-141, 1,2-endo,4,7,7-pentachloronorbornane]",0.25,10,0.125,0.5,–,"down ([2]; 0.5%, 5 minutes): 38%"
"ClC12C=CC(Cl)(CC1)C2(Cl)Cl [CIC-142, 1,4,7,7-tetrachloronorbon-2-ene]",0.25,3,0.3,0.75,1.24%,"insecticidal effect in contact test [4]: effective insecticides; insecticidal effect in contact test [5]: only mildly effective; insecticidal effect in contact test [6]: effective insecticides; insecticidal effect in contact test [7]: effective insecticides; insecticidal effect in contact test [8]: effective insecticides; down ([2]; 0.75%, after 4 minutes): 37%; insecticidal effect in contact test [9]: effective insecticides; insecticidal effect in contact test [10]: effective insecticides; insecticidal effect in contact test [11]: no effect; insecticidal effect in contact test [12]: effective insecticides; insecticidal effect in contact test [13]: effective insecticides"
"Cl[C@@H]1[C@H](Cl)[C@]2(Cl)CC[C@@]1(Cl)C2 [CIC-145, 1,2-endo,3-endo,4-tetrachloronorbornane]",0.08,3,0.04,0.08,>> 0.01%,"insecticidal effect in contact test [4]: effective insecticides; insecticidal effect in contact test [5]: effective insecticides; insecticidal effect in contact test [6]: effective insecticides; insecticidal effect in contact test [7]: effective insecticides; insecticidal effect in contact test [8]: effective insecticides; mortality at 0.04 % ([2]; 0.04%, after 5 hours, read-out: dead): 62%; down ([2]; 0.08%, after 5 minutes): 63%; insecticidal effect in contact test [9]: effective insecticides; insecticidal effect in contact test [10]: effective insecticides; insecticidal effect in contact test [11]: effective insecticides; insecticidal effect in contact test [12]: effective insecticides; insecticidal effect in contact test [13]: effective insecticides"
"Cl[C@H]1[C@H](Cl)[C@@]2(Cl)CC[C@]1(Cl)C2(Cl)Cl [CIC-146, 1,2-exo,3-endo,4,7,7-hexachloronorbornane]",3,24,> 1,–,–,–
"ClC1=CC2(Cl)CCC1(Cl)C2(Cl)Cl (stereo not shown) [CIC-147, 1,2,4,7,7-pentachloronorborn-2-ene]",0.08,9,0.125,0.125,1.04%,"down ([2]; 0.125%, 10 minutes): 63%; mortality at 0.125 % ([2]; 1.5 h, read-out: dead): 50%"
"CC1CC2(Cl)CCC1(Cl)C2(Cl)Cl (stereo not shown) [CIC-151, 1,4,7,7-tetrachloro-2-methyl-norbornane]",–,–,0.50,0.5,0.01%,"100% effect ([1]; 0.5% solution in acetone on filter paper, time after which 100% of the mosquitoes were affected): 0.16 h; 100 % kill ([1]; 0.5% solution in acetone on filter paper): 12 h; down ([2]; 0.5%, time not given): 73%; mortality at 0.5 % ([2]; read-out: dead): 73%"
